Literature values as cited in US20140323580A1, “P[…] DOSAGE FORM” (Pharmacorp CC, priority 2009, published 2014).
Counter-ions that a name gives are not always drawn. Like-named read-outs stand apart in the source and are kept apart here.

Structure (SMILES) | solubility in alcohol (HCl) | solubility in chloroform (HCl) | solubility in ether (HCl) | solubility in water (HCl) | solubility in alcohol | solubility in chloroform | solubility in ether | solubility in water
CC(C)(N)Cc1ccccc1 [phentermine HCl] | very soluble | very soluble | insoluble | very soluble |  |  |  | 
CC(C)(N)Cc1ccccc1 [Phentermine, α,α-dimethyl phenethylamine (phenyl-tertiary-butylamine)] |  |  |  |  | soluble | soluble | soluble | slightly soluble
